Experimental data as given in patent publication US20260144783A1, “COMPOSITION FOR PREVENTING OR TREATING PERIPHERAL NEUROPATHY, CONTAINING ISOQUINOLINE DERIVATIVE AS ACTIVE INGREDIENT” (ALTMEDICAL CO., LTD., priority 2022, published 2026).
Read-outs that look alike come from different tables or passages of the source.

Assays:
[1] = system: BEAS-2B cell line; assay: mitophagy activity, mt-Keima fluorescent protein (FACS, confocal microscope, mito-YFP); format: cell-based, human
Description: To analyze the mitophagy-promoting activity effect of the CD1-012 synthesized in the Example 1, the BEAS-2B cell line, which is a human normal lung cell line, was induced to express the mt-Keima fluorescent protein. Following this, the CD1-012 (15 μM) and the compound of Comparative Example 1, CCCP (10 μM), were treated for 24 hours. After the treatment, the mitophagy activity of each sample was measured, and the results were represented in FIGS. 1A to IC.
Specifically, FIG. 1A represents the analysis results using flow cytometry (FACS) (treatment of CD1-012 at 15 µM for 24 hours), FIG. 1B represents the analysis results using a confocal microscope (treatment of CD1-012 at 15 μM for 18 hours), and FIG. 1C represents the measurement results of the quantitative changes in the mitochondria using a fluorescent protein, mito-YFP, which includes a targeting sequence to transport protein to the mitochondria (treatment of CD1-012 at 20 μM for 24 hours).
It was confirmed whether CD1-012 synthesized in Example 1 promotes mitophagy activity in a concentration- and time-dependent manner. To this end, the CD1-012 was treated at various concentrations or at a fixed concentration (15 μM) for different treatment durations in the BEAS-2B cell line expressing mt-Keima, and mitophagy activity was measured using a flow cytometer.
(§1) It was confirmed whether CD1-012 synthesized in Example 1 specifically increases only mitophagy activity. To this end, the BEAS-2B cell line expressing mt-Keima was treated with CD1-012 (15 μM) or Comparative Example 1 (CCCP, 10 μM) for 18 hours, and mitophagy activity was analyzed using a confocal microscope. Additionally, to measure autophagy activity, the BEAS-2B cell line expressing Keima fluorescent protein was incubated in Hanks' balanced salt solution (HBSS) for 3 hours to induce a starvation condition (starv.), and the results were compared with samples treated with CD1-012 (15 μM) for 18 hours using a confocal microscope.
To this end, the human normal lung cell line BEAS-2B, expressing mt-Keima fluorescent protein, was treated with CD1-012, Comparative Example 2 (palmatine), or Comparative Example 3 (berberine) at various concentrations, and the mitophagy-inducing activity of each sample was compared.

[2] = system: chemotherapy-induced peripheral neuropathy mouse model; assay: vonfrey hair test, peripheral neuropathy mouse model; format: in vivo; details: mice
Description: To more clearly verify the therapeutic effect of the isoquinoline derivative of the present invention on peripheral neuropathy, particularly chemotherapy-induced peripheral neuropathy, experiments were conducted using a peripheral neuropathy mouse model. Specifically, peripheral neuropathy was induced in mice by administration of a chemotherapeutic agent (paclitaxel), and CD1-012 was co-administered at a dose of 10 mg/kg or 20 mg/kg. Sensitivity to pain was then analyzed using the vonfrey hair test.

[3] = system: chemotherapy-induced peripheral neuropathy mouse model; assay: nerve distribution in the footpad (IENFs), peripheral neuropathy mouse model; format: in vivo
[4] = system: Drosophila larvae; assay: larval size after treatment; format: in vivo
Description: In addition, to evaluate whether the compound according to the present invention affects the growth of Drosophila, the size of larvae was measured after treatment with paclitaxel and CD1-012.

[5] = system: C4da sensory neurons (ppk1a>CD4-tdTom Drosophila); assay: morphology of dendritic branches of C4da sensory neurons; format: in vivo
Excerpt: To analyze the morphological changes in the dendritic branches of C4da sensory neurons, transgenic Drosophila expressing the fluorescent protein CD4-tdTomato specifically in C4da neurons (ppk^1a>CD4-tdTom) was generated. After treatment of the transgenic flies with paclitaxel and CD1-012, morphological changes in the dendritic branches of C4da sensory neurons were examined. As a result, treatment with paclitaxel increased the total dendrite length and the number of dendritic branches by 22% and 33%, respectively, confirming that morphological changes in the sensory neurons were induced.

[6] = system: third-instar larvae of Drosophila (w1118); format: in vivo; details: for withdrawal latency: heat probe 40° C.
Description: To this end, thermal sensitivity was measured in a Drosophila model of paclitaxel-induced peripheral neuropathy. […] As a result, after treatment with paclitaxel, hyperalgesia was observed, as indicated by a 35% reduction in withdrawal latency from 6.9 seconds to 4.5 seconds (FIG. 8A). Subsequently, to confirm the therapeutic effect of CD1-012 on peripheral neuropathy, Drosophila were treated with CD1-012 at a concentration of 1 mM along with paclitaxel (20 μM).
(§2) Subsequently, to understand the molecular mechanism underlying the therapeutic effect of CD1-012 on chemotherapy-induced peripheral neuropathy, the therapeutic effect of CD1-012 was examined after suppressing the expression of ULK1 or Rap9, which are essential genes in the recently identified alternative mitophagy pathway. To this end, a heat probe assay was performed using a 40° C. thermal probe after co-treating paclitaxel (20 μM) and CD1-012 (1 mM) in Drosophila expressing shULK1 or shRap9 in C4da sensory neurons, as well as in control Drosophila (wild-type). As a result, in the control group, the peripheral neuropathy symptoms (reduction in withdrawal latency) induced by paclitaxel were recovered by CD1-012 treatment.

[7] = system: HeLa-Parkin cell line; assay: mitophagy activity, flow cytometry (FACS); format: cell-based
Description: (§3) It was confirmed whether CD1-012 synthesized in Example 1 increases mitophagy activity in various cell lines. To this end, CD1-012 and Comparative Example 1 (CCCP) were treated in the SH-SY5Y cell line, a human neuroblastoma cell line expressing mt-Keima fluorescent protein, and in the HeLa-Parkin cell line, a HeLa cervical cancer cell line expressing Parkin (E3 ligase). Following this treatment, the mitophagy activity of each sample was analyzed using flow cytometry (FACS), and the results are shown in FIGS. 2A to 2B.

[8] = system: SH-SY5Y cell line; assay: mitophagy activity, mt-Keima, flow cytometry (FACS); format: cell-based, human; details: SH-SY5Y expressing mt-Keima
Description: as §3

[9] = system: Drosophila expressing shULK1 in C4da sensory neurons; assay: heat probe assay, ULK1 suppressed; format: in vivo; details: ULK1 expression suppressed; paclitaxel 20 μM and CD1-012 1 mM
Description: as §2

[10] = system: mitochondrial reactive oxygen species (ROS); assay: MitoSOX assay; format: cell-based; details: CD1-012 10 μM or 15 μM, CCCP 10 μM, 24 hours
Description: (§4) It was confirmed whether the isoquinoline derivative according to the present invention induces mitochondrial dysfunction, similar to CCCP. To this end, the CD1-012 (10 μM or 15 μM) and CCCP (10 μM) were treated for 24 hours, and the mitochondrial membrane potential and mitochondrial reactive oxygen species (ROS) levels in each sample were analyzed. Mitochondrial membrane potential was analyzed using the TMRM (tetramethylrhodamine methyl ester) assay, and mitochondrial ROS levels were analyzed using the MitoSOX assay.

[11] = system: Drosophila expressing shRap9 in C4da sensory neurons; assay: heat probe assay, Rap9 suppressed; format: in vivo; details: Rap9 expression suppressed; paclitaxel 20 μM and CD1-012 1 mM
Description: as §2

[12] = system: BEAS-2B cell line, in which PINK1 was knocked down (shPINK1); assay: mitophagy activity in PINK1 knockdown cell line (FACS); format: cell-based, human; details: CCCP 10 μM or CD1-012 15 μM, 18 hours
Description: In this example, it was confirmed whether the mitophagy activation function of the isoquinoline derivative according to the present invention is dependent on the PINK1-Parkin pathway. To this end, after a BEAS-2B cell line, in which PINK1 was knocked down using short hairpin RNA (shRNA), was treated with CCCP (10 μM) of Comparative Example 1 or CD1-012 (15 μM) for 18 hours, the mitophagy activity of each sample was analyzed using flow cytometry (FACS).

[13] = system: BEAS-2B cell line; assay: autophagy activity, Keima fluorescent protein, confocal microscope; format: cell-based, human; details: 15 μM 18 h, BEAS-2B expressing Keima, FIG. 4B
Description: as §1

[14] = system: Drosophila expressing shATG5 in C4da sensory neurons; assay: heat probe assay, ATG5 suppressed; format: in vivo; details: ATG5 expression suppressed; paclitaxel 20 μM and CD1-012 1 mM, 40° C. probe
Description: (§5) In this example, an experiment was conducted to verify the therapeutic mechanism of the compound according to the present invention on peripheral neuropathy, particularly chemotherapy-induced peripheral neuropathy. To this end, the therapeutic effect of CD1-012 on peripheral neuropathy was evaluated using animal models in which the expression of ATG5 or ATG7, essential genes in the canonical mitophagy pathway, the most representative mitophagy regulatory pathway, was suppressed. Specifically, paclitaxel (20 μM) and CD1-012 (1 mM) were co-administered to Drosophila expressing shATG7 or shATG5 in C4da sensory neurons, as well as to control flies (wild-type), and a heat probe assay was conducted using a 40° C. thermal probe.

[15] = system: mitochondrial membrane potential; assay: TMRM assay; format: cell-based; details: CD1-012 10 μM or 15 μM, CCCP 10 μM, 24 hours
Description: as §4

[16] = system: Drosophila expressing shATG7 in C4da sensory neurons; assay: heat probe assay, ATG7 suppressed; format: in vivo; details: ATG7 expression suppressed; paclitaxel 20 μM and CD1-012 1 mM, 40° C. probe
Description: as §5

[17] = paclitaxel treatment, C4da sensory neurons
[18] = 15 μM, BEAS-2B mt-Keima, FIG. 3B
[19] = CD1-012 co-administered with paclitaxel

In the case of `COc1ccc2cc3[n+](cc2c1OC)CCc1cc2c(cc1-3)OCO2` [berberine, Berberine, reference compound], the “concentration at which mitophagy activity reached its maximum (comparable level)” value (“concentration … (comparable level)” below) ([1]; BEAS-2B mt-Keima, FIG. 5) is reported as 80 µM.
For `CC(=O)O[C@H]1C(=O)[C@@]2(C)[C@H]([C@H](OC(=O)c3ccccc3)[C@]3(O)C[C@H](OC(=O)[C@H](O)[C@@H](NC(=O)c4ccccc4)c4ccccc4)C(C)=C1C3(C)C)[C@]1(OC(C)=O)CO[C@@H]1C[C@@H]2O` [paclitaxel, reference compound], the pain sensitivity ([2]; paclitaxel alone) was “increased”, the “number of peripheral nerves (intraepidermal nerve fibers: IENFs) in the footpad” value ([3]; mice, paclitaxel alone) was “reduced” and the “reduction in larval size compared to the untreated control group” value ([4]; Drosophila larvae, FIG. 8B) was about 28%. The “increase in number of dendritic branches” value [5, 17] was 33%, the “increase in total dendrite length” value [5, 17] was 22% and the “reduction in withdrawal latency” value ([6]; paclitaxel 20 μM 48 hours alone, from 6.9 seconds to 4.5 seconds) was 35%. It also gave a withdrawal latency ([6]; paclitaxel 20 μM 48 hours alone, untreated 6.9 seconds) of 4.5 s.
For `COc1cc2c(cc1OC)-c1cc3ccc(OC)c(OC)c3c[n+]1CC2` [palmatine, Palmatine, reference compound], the “concentration … (comparable level)” value ([1]; BEAS-2B mt-Keima, FIG. 5) was 400 µM.
With `Oc1cc2c(cc1O)-c1cc3ccc(O)c(O)c3c[n+]1CC2` [CD1-012, 2,3,9,10-tetrahydroxy-5,6-dihydroisoquinolino[3,2-a]isoquinolin-7-ium bromide] the “mitophagy activity compared to the control group (Con)” value [7] was “significantly increased”, the “hyperalgesic symptoms (sensitivity to pain)” value ([2]; CD1-012 10 mg/kg or 20 mg/kg co-administered with paclitaxel, FIG. 12A) was “significant improvement” and the “mitophagy activity compared to the control group (Con)” value [8] was “significantly increased”. The “therapeutic effect on paclitaxel-induced peripheral neuropathy (withdrawal latency)” value [9] was “completely abolished”, the “mitochondrial ROS levels” value [10] was “no increase” and the “number of peripheral nerves (intraepidermal nerve fibers: IENFs) in the footpad” value ([3]; mice treated with CD1-012 and paclitaxel, FIG. 12B) was “recovery to normal levels”. The “therapeutic effect on paclitaxel-induced peripheral neuropathy (withdrawal latency)” value [11] was “completely abolished”, the “mitophagy activity compared with CCCP-treated sample (FIG. 1A, FACS)” value ([1]; 15 μM 24 h, CCCP 10 μM) was “increased as significantly as” and the “treatment time after which mitophagy activity began to significantly increase” value [1, 18] was 3 h. For the same compound, the “treatment time at which mitophagy activity reached its maximum level” value [1, 18] was 18 h, the “concentration … (comparable level)” value ([1]; BEAS-2B mt-Keima, FIG. 5) was 10 µM and the “mitophagy-inducing activity relative to berberine” value ([1]; BEAS-2B mt-Keima, FIG. 5) was “approximately 8 times”. For the same compound, the “mitophagy-inducing activity relative to palmatine” value ([1]; BEAS-2B mt-Keima, FIG. 5) was “approximately 40 times”, the “concentration at which mitophagy activity began to significantly increase compared to untreated control” value ([1]; BEAS-2B mt-Keima, flow cytometer, FIG. 3A) was at least 7.5 µM and the “mitophagy activity compared to the untreated control group (Con)” value ([1]; BEAS-2B mt-Keima, CD1-012 15 μM 24 h FACS, 15 μM 18 h confocal, 20 μM 24 h mito-YFP) was “significant increase”. The “mitophagy activity, concentration dependence” value ([1]; up to the maximum treatment concentration of 17.5 μM, FIG. 3A) was “continued to increase in a concentration-dependent manner”, the “mitophagy activation in PINK1 knockdown cell line (shPINK1) compared to control” value [12] was “did not show a significant difference” and the “autophagy activity compared to the untreated control group” value [13] was “no significant difference”. The “therapeutic effect on chemotherapy-induced peripheral neuropathy (withdrawal latency)” value [14] was “similarly observed”, the mitochondrial membrane potential [15] was “no decrease” and the “reduction in larval size compared to the untreated control group” value ([4]; in vivo) was about 10%. The “therapeutic effect on chemotherapy-induced peripheral neuropathy (withdrawal latency)” value [16] was “similarly observed”, the “paclitaxel-induced increase in dendrite length” value [5, 19] was “significantly suppressed” and the “paclitaxel-induced increase in number of branches” value [5, 19] was “significantly suppressed”. For the same compound, the “withdrawal latency as percent of the wild-type level” value ([6]; CD1-012 1 mM along with paclitaxel 20 μM) was 91%, the withdrawal latency ([6]; CD1-012 1 mM along with paclitaxel 20 μM, paclitaxel alone 4.5 seconds) was 6.3 s and the “peripheral neuropathy symptoms (reduction in withdrawal latency) induced by paclitaxel” value ([6]; control Drosophila (wild-type), paclitaxel 20 μM and CD1-012 1 mM, 40° C. probe) was “recovered”.
For `N#CC(C#N)=NNc1cccc(Cl)c1` [CCCP, Carbonyl cyanide 3-chlorophenylhydrazone, reference compound], the “mitochondrial ROS levels” value [10] was “significantly increased”, the “mitophagy activation in PINK1 knockdown cell line (shPINK1) compared to control” value [12] was “significantly decreased” and the mitochondrial membrane potential [15] was “significantly reduced”.
